Laboratory results: paper PMC11864945 (Frontiers in Pharmacology, 2025)
Like-named read-outs stand apart in the source and are kept apart here.

Columns and labels:
[1] = Stability of the analytes in beagle dog plasma (bench top, refrigerator, freeze–thaw, autosampler, short and long term storage); assay type: physicochemical; conditions: for Mean stability sample ±SD: n = 5
Method: Stability experiments were conducted in working solutions of the analytes and IS for short term stability at 4°C and stock solutions for long term stability at −20°C, respectively. Peak area ratio responses (Analytes/IS) of stored solutions were compared with those of freshly prepared solutions. The acceptance criterion was ±10.0% deviation when comparing the values of fresh solutions. The stabilities of the analytes in beagle dog plasma were evaluated by analyzing five replicates at LQC and HQC levels. Types of stabilities were following as: bench top stability (room temperature), refrigerator stability (4°C), autosampler stability for processed samples (6°C), freeze–thaw stability (−80°C), short term stability (−20°C) and long term (–80°C) storage stability.

[2] = beagle, dog, in vivo; for AUC0–30 / AUC0–inf / Cmax / Kel (elimination rate constant) / Tmax / t1/2 (elimination half–life): po
Method: (§1) Adaptive feeding and observation were carried out for 7 days before the bioequivalence study. Physical examination, blood routine and blood biochemical tests were performed the day before the trial to ensure the health of the dogs. […] The subjects were orally administered a single dose of test or reference formuations with 100 mL of water with a washout period of 2 weeks. Blood samples were collected into heparinized tubes at 0.00 (pre–dose), 0.17, 0.33, 0.67, 1.00, 1.50, 2.00, 2.50, 3.00, 4.00, 5.00, 6.00, 7.00, 8.00, 9.00, 10.00, 11.00, 12.00, 14.00, 24.00 and 30.00 h after oral administration. […] The number of blood collections for drug analysis was 21 samples in each study period. The collected blood samples were centrifuged in a pre–cooled centrifuge at 2,150 g for 10 min, and the separated plasma was transferred to a clean centrifuge tube and frozen in a −80°C refrigerator until analysis.
(§2) The pharmacokinetic parameters for the analytes were evaluated by non–compartmental analysis using Phoenix WinNonlin software version 8.1 (Certara Corporation, Radnor, PA, United States). The maximum plasma concentration (Cmax), the area under the plasma concentration-time curve from time zero to the last sampling time (AUC0–30), the area under the plasma concentration-time curve from time zero to infinity (AUC0–inf), as the primary target, and their geometric mean ratios (test/reference) using log transformed data were assessed to determine whether the formulations were pharmacokinetically equivalent.
(§3) The study was conducted as an open label, balanced, randomized, crossover, two–treatment, two–period, two–sequence and single–dose design to compare the bioavailability of PYR, PRA, FBT, FEN and OXF between two products in 38 healthy beagle dogs. Each subject received a tablet from the test product (Self–developed preparation) and a tablet from reference product (Drontal® Plus Flavor) under fasting conditions with a washout period of 2 weeks.

in vivo = conditions: beagle, dog, po; for AUC(0-t): AUC0–30; for AUC(0-inf): AUC0–inf; for k el: Kel (elimination rate constant); for half-life: t1/2 (elimination half–life)
Method: as §1, §2, §3

[3] = stock solution in DMF, −20°C
Method: Individual stock solutions of PYR, PRA, FBT, FEN and OXF were prepared for standards and quality control samples in DMF at 1 mg/mL. IS stock solution was also prepared in DMF at 400 μg/mL. The mixed working solutions were obtained by mixing the stock solution in different volumes and then performing appropriate dilution in methanol: water (50:50, V/V). The IS working solution of 200 ng/mL was also prepared with DMF from the primary stock solution. […] The working solutions for the analytes and IS were stored at 4°C and brought to room temperature before use.
Stability experiments were conducted in working solutions of the analytes and IS for short term stability at 4°C and stock solutions for long term stability at −20°C, respectively. Peak area ratio responses (Analytes/IS) of stored solutions were compared with those of freshly prepared solutions. The acceptance criterion was ±10.0% deviation when comparing the values of fresh solutions.

[4] = 20 healthy beagle dogs, identical dose strength, ref Klausz et al., 2015, cited from earlier work
[5] = Bioequivalence / pharmacokinetic study of compound febantel tablets after single oral dose, plasma levels by UPLC–MS/MS; conditions: beagle, dog, 38 beagle dogs, fasting, mean ± SD; for AUC(0-inf): AUC0–inf; for k el: Kel (elimination rate constant); for half-life: t1/2 (elimination half–life)
Method: as §1, §2, §3

[6] = autosampler, 6°C, 55 h, processed plasma samples, HQC
[7] = autosampler, 6°C, 55 h, processed plasma samples, LQC
[8] = bench top, room temperature, 8 h, dog plasma, HQC (added 180 ng/mL PYR/OXF, 675 PRA, 90 FBT, 450 FEN)
[9] = bench top, room temperature, 8 h, dog plasma, HQC, % of nominal concentration
[10] = bench top, room temperature, 8 h, dog plasma, LQC (added 12 ng/mL PYR/OXF, 45 PRA, 6 FBT, 30 FEN)
[11] = bench top, room temperature, 8 h, dog plasma, LQC, % of nominal concentration
[12] = freeze–thaw after 3rd cycle at −80°C, dog plasma, HQC
[13] = freeze–thaw after 3rd cycle at −80°C, dog plasma, LQC
[14] = long term, −80°C, 120 days, dog plasma, HQC
[15] = long term, −80°C, 120 days, dog plasma, LQC
[16] = refrigerator, 4°C, 30 h, dog plasma, HQC
[17] = refrigerator, 4°C, 30 h, dog plasma, LQC
[18] = short term, −20°C, 48 h, dog plasma, HQC
[19] = short term, −20°C, 48 h, dog plasma, LQC
[20] = reference product (R), single oral tablet
[21] = test product (T), single oral tablet

Compound	Mean stability sample ±SD [1, 6]	Accuracy [1, 7]	Mean stability sample ±SD [1, 7]	Mean stability sample ±SD [1, 8]	Accuracy [1, 9]	Mean stability sample ±SD [1, 10]	Accuracy [1, 11]	Accuracy [1, 12]	Mean stability sample ±SD [1, 12]	Accuracy [1, 13]	Mean stability sample ±SD [1, 13]	Accuracy [1, 14]	Mean stability sample ±SD [1, 14]	Accuracy [1, 15]	Mean stability sample ±SD [1, 15]	Accuracy [1, 16]	Mean stability sample ±SD [1, 16]	Accuracy [1, 17]	Mean stability sample ±SD [1, 17]	Accuracy [1, 18]	further results
COC(=O)Nc1nc2ccc(Sc3ccccc3)cc2[nH]1 [Fenbendazole, fenbendazole]	457.91 ± 24.20 ng/mL	100.87%	30.26 ± 0.97 ng/mL	412.09 ± 6.95 ng/mL	91.58%	28.75 ± 0.77 ng/mL	95.83%	99.49%	447.72 ± 13.36 ng/mL	98.82%	29.65 ± 1.05 ng/mL	101.31%	455.87 ± 11.17 ng/mL	102.31%	30.69 ± 0.89 ng/mL	97.40%	438.32 ± 14.73 ng/mL	97.04%	29.11 ± 1.92 ng/mL	104.58%	Mean stability sample ±SD [1, 18]: 470.60 ± 13.89 ng/mL; Accuracy [1, 19]: 103.13%; Mean stability sample ±SD [1, 19]: 30.94 ± 2.18 ng/mL; AUC0–30 [2]: 1,689.33 ± 881.68 h. ng/mL; AUC0–inf [2]: 1,893.90 ± 934.66 h ng/mL; Cmax [2]: 212.35 ± 104.41 ng/mL; Kel (elimination rate constant) [2]: 0.15 ± 0.07 h⁻¹; Tmax [2]: 5.20 ± 3.10 h; t1/2 (elimination half–life) [2]: 5.76 ± 3.70 h; AUC(0-t) (in vivo): 1440 ng·h/mL; AUC(0-inf) (in vivo): 1680 ng·h/mL; k el (in vivo): 4.44e-05 s⁻¹; Tmax (in vivo): 5 ± 3.56 h; half-life (in vivo): 6.96 ± 8.33 h
[2H]C([2H])([2H])OC(=O)Nc1nc2ccc(Sc3ccccc3)cc2[nH]1 [IS, Fenbendazole–D3]																					Long–term stability of stock solution (time remained stable) [3]: 104 days
O=C(C1CCCCC1)N1CC(=O)N2CCc3ccccc3C2C1 (centres unmarked) [Praziquantel, praziquantel]	729.27 ± 27.29 ng/mL	103.68%	46.65 ± 1.23 ng/mL	645.65 ± 11.69 ng/mL	95.65%	44.28 ± 0.95 ng/mL	98.41%	99.19%	669.52 ± 14.97 ng/mL	98.12%	44.15 ± 2.42 ng/mL	91.14%	615.17 ± 19.69 ng/mL	94.44%	42.50 ± 4.13 ng/mL	96.95%	654.44 ± 29.69 ng/mL	98.16%	44.17 ± 3.20 ng/mL	108.18%	Accuracy [1, 6]: 108.04%; Mean stability sample ±SD [1, 18]: 730.20 ± 19.11 ng/mL; Accuracy [1, 19]: 100.34%; Mean stability sample ±SD [1, 19]: 45.15 ± 3.68 ng/mL; GMR (Test/Reference) of AUC0–30 [2]: 101.83%; GMR (Test/Reference) of AUC0–inf [2]: 101.79%; GMR (Test/Reference) of Cmax [2]: 97.63%; AUC0–30 [2]: 3,267.67 ± 1827.15 h. ng/mL; AUC0–inf [2]: 3,317.89 ± 1838.60 h ng/mL; Cmax [2]: 957.04 ± 537.42 ng/mL; Kel (elimination rate constant) [2]: 0.45 ± 0.12 h⁻¹; Tmax [2]: 1.48 ± 0.67 h; t1/2 (elimination half–life) [2]: 1.65 ± 0.46 h; AUC(0-t) (in vivo): 3320 ng·h/mL; AUC(0-inf) (in vivo): 3370 ng·h/mL; k el (in vivo): 0.000122 s⁻¹; Tmax (in vivo): 1.45 ± 1.05 h; half-life (in vivo): 1.66 ± 0.41 h
CN1CCCN=C1/C=C/c1cccs1 [Pyrantel, pyrantel]	194.53 ± 3.27 ng/mL	107.25%	12.87 ± 0.28 ng/mL	163.22 ± 1.45 ng/mL	90.68%	11.30 ± 0.66 ng/mL	94.15%	94.84%	170.71 ± 4.98 ng/mL	92.15%	11.06 ± 0.55 ng/mL	97.25%	175.05 ± 5.76 ng/mL	88.57%	10.63 ± 0.11 ng/mL	97.21%	174.99 ± 6.96 ng/mL	97.18%	11.66 ± 0.93 ng/mL	107.76%	Accuracy [1, 6]: 108.07%; Mean stability sample ±SD [1, 18]: 193.96 ± 8.82 ng/mL; Accuracy [1, 19]: 100.41%; Mean stability sample ±SD [1, 19]: 12.05 ± 0.92 ng/mL; GMR (Test/Reference) of AUC0–30 [2]: 110.18%; GMR (Test/Reference) of AUC0–inf [2]: 111.84%; GMR (Test/Reference) of Cmax [2]: 112.68%; AUC0–30 [2]: 378.04 ± 102.58 ng·h/mL; AUC0–inf [2]: 429.16 ± 117.30 ng·h/mL; Cmax [2]: 69.17 ± 21.12 ng/mL; Kel (elimination rate constant) [2]: 0.20 ± 0.08 h⁻¹; Tmax [2]: 2.87 ± 1.06 h; t1/2 (elimination half–life) [2]: 4.87 ± 4.38 h; AUC(0-t) (in vivo): 423 ± 140 ng·h/mL; AUC(0-inf) (in vivo): 489 ± 186 ng·h/mL; k el (in vivo): 5.28e-05 s⁻¹; Tmax (in vivo): 3.08 ± 0.98 h; half-life (in vivo): 4.27 ± 2.03 h; Cmax ([4]; reference products): 81.1 ng/mL; Cmax ([4]; test products): 78.5 ng/mL
COC(=O)Nc1nc2ccc([S+]([O-])c3ccccc3)cc2[nH]1 (centres unmarked) [Qxfendazole, oxfendazole]	192.72 ± 8.41 ng/mL	106.85%	12.82 ± 0.85 ng/mL	162.16 ± 2.99 ng/mL	90.09%	12.08 ± 1.02 ng/mL	100.65%	97.23%	175.01 ± 5.08 ng/mL	100.97%	12.12 ± 0.84 ng/mL	97.64%	175.76 ± 5.23 ng/mL	93.96%	11.28 ± 0.62 ng/mL	96.84%	174.31 ± 5.37 ng/mL	95.50%	11.46 ± 0.74 ng/mL	105.41%	Accuracy [1, 6]: 107.07%; Mean stability sample ±SD [1, 18]: 189.73 ± 8.17 ng/mL; Accuracy [1, 19]: 98.29%; Mean stability sample ±SD [1, 19]: 11.80 ± 0.79 ng/mL; AUC(0-t) ([5]; AUC0–30, reference product (R), single oral tablet): 2100 ng·h/mL; AUC(0-t) ([5]; AUC0–30, test product (T), single oral tablet): 1790 ng·h/mL; AUC(0-inf) [5, 20]: 2550 ng·h/mL; AUC(0-inf) [5, 21]: 1910 ng·h/mL; Cmax ([5]; reference product (R, Drontal Plus), single oral tablet): 224 ± 112 ng/mL; Cmax ([5]; test product (T), single oral tablet (150 mg FBT, 144 mg pyrantel pamoate, 50 mg PRA)): 184 ± 95.7 ng/mL; k el [5, 20]: 6.11e-05 s⁻¹; k el [5, 21]: 6.67e-05 s⁻¹; Tmax [5, 20]: 6.97 ± 3.47 h; Tmax [5, 21]: 7.08 ± 2.65 h; half-life [5, 20]: 4.17 ± 2.45 h; half-life [5, 21]: 3.83 ± 3.03 h
